Columns and labels:
U2OS [1] = experiment: WST-1 proliferation assay, U2OS; assay type: cell-based; details: Homo sapiens; for IC50: Osteosarcoma U2OS, 72 h, read-out: Anti-proliferative activity IC50 (μM) ± SD; for inhibition at 0.1 µM / inhibition at 0.5 µM / inhibition at 1 µM: U2OS
Description: (§1) Several cancer cell lines were used: breast cancer cells (MDA-MB-231 (ATTCC® Number HTB-26™), MDA-MB-436 (ATTCC® Number HTB-130™), MDA-MB-438, BT-474 (ATTCC® Number HTB-20™)); cervical cancer cells (HeLa (ATTCC® Number CCL-2™)); colon cancer cells (HCT-116 (ATTCC® Number CCL-247™) and HT-29 (ATTCC® Number HTB-38™)); osteosarcoma cells (U2OS (ATTCC® Number HTB-96™)); pancreas cancer cells (MIA PaCa-2 (ATTCC® Number CRL-1420™) and Panc-10.5 (ATTCC® Number CRL-2547™)); prostate cancer cells (PC-3 (ATTCC® Number CRL-1435™) and LNCaP (ATTCC® Number CRL-1740™)); brain cancer cells (U87 glioblastoma (ATTCC® Number HTB-14™) and SH-SYSY neuroblastoma (ATTCC® Number CRL-2266™)).
(§2) All the cancer cell lines were maintained in cultured in DMEM GlutaMAX™ (GIBCO Invitrogen, France, cat no 31966047) enhanced with 10% foetal bovine serum (GIBCO Invitrogen, France, cat no 10270-106) and 1% penicillin G/streptomycin (GIBCO Invitrogen, France, cat no 15140-122). Only Panc-10.5 cells were cultivated in RPMI 1640 medium (Gibco) supplemented with 2 mM L-glutamine, 1.5 g/L sodium bicarbonate, 4.5 g/L glucose, 10 mM HEPES, 1 mM sodium pyruvate, 10 Units/ml human insulin, […] (SVF): 15% (75 ml in 500 ml of medium).
(§3) Cells were grown as subconfluent monolayer and cultured in 75 cm^2 flasks at 37° C., 5% CO2 in a humidified atmosphere, and medium was changed every two days. Only cells from passages 2-6 were used for the experiments.
(§4) After observation of cells under the microscope, old media were removed and the adherent cells washed gently twice with PBS (Phosphate Buffer Saline, —Ca^2+, —Mg^2+, Lonza cat no: 17-512F/12). All cells were detached with 3 ml of trypsin/EDTA (chelator of calcium and magnesium ions) (Lonza), incubated for 5 min at 37° C., and examined using a microscope to ensure that the cells were detached and floating. Then, 3 ml TNS (Trypsin Neutralizing Solution, Lonza, France, cat no CC-5002) or of culture medium were added to inactivate the trypsin, and the cell suspension was transferred in a falcon and centrifuged for 7 min at 1400 rpm. The supernatant was removed and the cell pellet resuspended in […] of culture medium. 50 μl of this solution were transferred in 20 μl of isotonic solution and the cells were counted by count cellular (Beckman Coulter). At day 0, 200 μl of cellular suspension (3.10^3 cells/well for the HUVEC cells, breast cancer cells (MDA-MB-231 1.10^4 cells/well, MDA-MB-436 1.10^4 cells/well, MDA-MB-438 2.10^4 cells/well, BT-474 2.5.10^4 cells/well); cervical cancer cells (HeLa 5.000 cells/well); colon cancer cells (HCT-116 5.10^3 cells/well, HCT-29 1.1.10^4 cells/well); osteosarcoma cells (U2OS 8.10^3 cells/well); pancreas cancer cells (MIA PaCa-2 5.10^3 cells/well, Panc-10.5 1.5.10^4 cells/well); prostate cancer cells (PC-3 4.10^3 cells/well, LNCaP 2.10^4 cells/well); brain cancer cells (U87 5.10^3 cells/well, SH-SYSY 8.10^4 cells/well)) were then plated on 96 well plates and incubated at 37° C. in a humidified atmosphere of 5% CO2 for 24 h.
(§5) At day 1, the compounds 1 or 2 of the invention were added at increasing concentrations (0.1-10 μM) in the wells and plates were incubated at 37° C. in a humidified atmosphere of 5% CO2 for 72 h.
(§6) The cell proliferation WST-1 assay is a colorimetric assay for the quantification of cell proliferation and viability, based on the enzymatic cleavage of the tetrazolium salt WST-1 added to the culture medium, to a water soluble colored formazan dye, detected by absorbance at 450 nm, by mitochondrial succinate-tetrazolium reductase in viable cells. An augmentation in enzyme activity will then lead to an increase in the amount of formazan dye formed, which directly correlates to the number of metabolically active cells in the culture.
(§7) After an incubation period of 72 h, at day 4, were prepared the 19 ml medium with reagent WST-1 1 ml ([…]). The medium was removed from the 96 microplate and 200 μl of solution WST-1/medium were added for each well. […]

A549 = experiment: WST-1 proliferation assay, A549; assay type: cell-based; details: Homo sapiens; Lung A549; read-out: Anti-proliferative activity IC50 (μM) ± SD
Protocol: as §2
(§8) Cells were grown as subconfluent monolayer and cultured in 75 cm^2 flasks at 37° C., 5% CO2 in a humidified atmosphere, and medium was changed every two days. […]
(§9) The cell proliferation WST-1 assay is a colorimetric assay for the quantification of cell proliferation and viability, based on the enzymatic cleavage of the tetrazolium salt WST-1 added to the culture medium, to a water soluble colored formazan dye, detected by absorbance at 450 nm, by mitochondrial succinate-tetrazolium reductase in viable cells. […]
(§10) After an incubation period of 72 h, at day 4, were prepared the 19 ml medium with reagent WST-1 1 ml ([…]). […] The cells were incubated at 37° C. in a humidified atmosphere of 5% CO2 for 1 h 30 and the absorbance at 450-655 nm was measured by Microplate Manager 5.2 (Bio-Rad).

HeLa = experiment: WST-1 proliferation assay, HeLa; assay type: cell-based; details: Homo sapiens; for IC50: Cervical HeLa, 72 h, read-out: Anti-proliferative activity IC50 (μM) ± SD; for inhibition at 0.1 µM / inhibition at 0.5 µM / inhibition at 1 µM: HeLa
Description: as §1, §2, §3, §4, §5, §6, §7

MDA-MB-231 = experiment: WST-1 proliferation assay, MDA-MB-231; assay type: cell-based, Human; details: for IC50: Homo sapiens, Breast MDA-MB-231, 72 h, read-out: Anti-proliferative activity IC50 (μM) ± SD; for effect on anti-proliferative effect of 5-FU: MDA-MB-231, combination with 5-FU, 72 hours (FIG. 7); for cytotoxicity for cancer cells in vitro: MDAMB-231 cell survival, FIGS. 1A-C
Protocol: as §3
All cells were detached with 3 ml of trypsin/EDTA (chelator of calcium and magnesium ions) (Lonza), incubated for 5 min at 37° C., and examined using a microscope to ensure that the cells were detached and floating. […] The supernatant was removed and the cell pellet resuspended in […] of culture medium. 50 μl of this solution were transferred in 20 μl of isotonic solution and the cells were counted by count cellular (Beckman Coulter).
as §6
After an incubation period of 72 h, at day 4, were prepared the […] medium with reagent WST-1 […] ([…]). The medium was removed from the 96 microplate and 200 μl of solution WST-1/medium were added for each well. The cells were incubated at 37° C. in a humidified atmosphere of 5% CO2 for 1 h 30 and the absorbance at 450-655 nm was measured by Microplate Manager 5.2 (Bio-Rad).

MDA-MB-438 = experiment: WST-1 proliferation assay, MDA-MB-438; assay type: cell-based; details: Homo sapiens; MDA-MB-438, 0.05 μM
OPM-2 = experiment: WST-1 proliferation assay, OPM-2; assay type: cell-based; details: Homo sapiens; Myeloma OPM-2; read-out: Anti-proliferative activity IC50 (μM) ± SD
Protocol: as §2, §8, §9, §10

U2OS [2] = experiment: WST-1 proliferation assay, U2OS; assay type: cell-based; details: Homo sapiens

Row | Compound | IC50 (U2OS [1]) [µM] | inhibition at 0.1 µM (U2OS [1]) [%] | inhibition at 0.5 µM (U2OS [1]) [%] | inhibition at 1 µM (U2OS [1]) [%] | IC50 (A549) [µM] | IC50 (HeLa) [µM] | inhibition at 0.1 µM (HeLa) [%] | inhibition at 0.5 µM (HeLa) [%] | inhibition at 1 µM (HeLa) [%] | IC50 (MDA-MB-231) [µM] | effect on anti-proliferative effect of 5-FU (MDA-MB-231) | cytotoxicity for cancer cells in vitro (MDA-MB-231) | inhibition at 0.05 µM (MDA-MB-438) [%] | IC50 (OPM-2) [µM] | inhibition at 0.05 µM (U2OS [2]) [%]
1 | Cc1ccc(-c2nc3ccccc3[nH]2)cc1NC(=S)NC(=O)c1ccc2c(c1)OCCO2 [Compound 1, N-[5-(1H-benzimidazol-2-yl)-2-methylphenyl]-N′-(2,3-dihydro-1,4-benzodioxin-6-ylcarbonyl)thiourea] | 2.3 ± 0.04 | 15 | 29 | 36 | 0.4 ± 0.04 | 0.4 ± 0.04 | 13 | 64 | 68 | 0.6 ± 0.03 | increase the anti-proliferative effect of 5-FU | cytotoxic | 2 | 2.5 ± 0.09 | 9
2 | O=C(NC(=S)Nc1cccc(-c2nc3ccccc3[nH]2)c1)c1ccc2c(c1)OCCO2 [Compound 2, N-[3-(1H-benzimidazol-2-yl)phenyl]-N′-(2,3-dihydro-1,4-benzodioxin-6-ylcarbonyl)thiourea] | 1.8 ± 0.05 | 31 | 41 | 44 | 0.1 ± 0.04 | 0.05 ± 0.04 | 62 | 64 | 67 | 0.4 ± 0.02 | increase the anti-proliferative effect of 5-FU | cytotoxic | 13 | 0.5 ± 0.01 | 18

— patent US20130041005A1, “PHARMACEUTICAL COMPOSITIONS COMPRISING NEUROPILIN INHIBITORS, AND THEIR USE FOR THE PREVENTION AND/OR TREATMENT OF ANGIOGENIC DISORDERS AND CANCERS” (TRAGEX PHARMA, priority 2011, published 2013)
